According to patent US7456154B2 (priority 2001, dated 2008):

How the values were obtained:
[1] = test system: MG patients; assay: Phase Ib clinical trial of oral hEN101 in MG patients (QMG score); format: in vivo, human; details: for Decrease in mean total QMG score from baseline: baseline mean total score 13.2
Description: Protocol for Phase Ib Clinical Trial of MG patients using hEN101: Patients were hospitalized and pyridostigmine was discontinued for 12-18 hours before EN101 testing. Assessment of MG status was performed first at entry, then after pyridostigmine stoppage, and regularly after EN101 treatment using a Quantitative MG (QMG) score. Escalating oral doses of EN101 (10-150 μg/kg) were given in the first day (day 1) followed by a daily dose of 500 μg/kg for 3 days (days 2-4). Days 5 and 6 were washout period without pyridostigmine, and restitution of pyridostigmine occurred when it became necessary. Patients were monitored for 1 month thereafter, with three visits as out-patients.
The following parameters were used as inclusion criteria: • Class II and above, according to MGFA classification (myasthenia gravis standard clinical classification of the disease severity score); • Age 18-70; • Seropositive for AChR antibodies; • Patients under pyridostigmine (180 mg/day) treatment without concomitant immunosuppressants; • Stable for 3 months, with no PE (plasma exchange) for 6 months; • No other major or active diseases.
Evaluation of the MG status of each patient was based on the following parameters: • (a) QMG scoring (maximum value of 9), based on the measurements of: • Fatigue in each limb (4); • Fatigue of the neck (1); • Swallowing rate (1); • Power in the hands (2); • Respirometry (1). • These measurements were taken daily, 4 times per day, and averaged for days 2-6. • (b) Patient's subjective report; • (c) Vital signs, clinical chemistry, hematology, urinalysis, ECG and physical examination, recorded daily.
16 patients with stable generalized MG requiring constant AChE inhibitors (pyridostigmine) for daily function were recruited, after approval by human ethics committees of the respective hospitals involved in the present trial (Hadassah Medical Center, Jerusalem, Israel and Greater Manchester Neurosciences Center, Hope Hospital, Salford, England).

[2] = test system: Cynomolgus monkeys; assay: 7-day toxicology study of hEN101 in Cynomolgus monkeys; format: in vivo, Cynomolgus monkey
Description: This experiment was conducted with six (3 males and 3 females) purpose-bred 15 month-old (young adult) Cynomolgus monkeys, divided in three groups (1, 2 and 3) of one male and one female each. Groups 1 and 2 received hEN101 daily by o.g. for a period of 7 days, at a concentration of 0.15 and 0.50 μg/g/day, respectively. Group 3 received daily i.v. injections of hEN101 for a period of 7 days at a dosage of 0.50 μg/g/day.
Over a 12 hour period, plasma samples were obtained during the second treatment day to investigate the toxicokinetic profile at each dosage. The toxicology study consisted of checking the animals during the 7 days of treatment for gross signs of toxicity by the following parameters: mortality, body weight, food consumption, electrocardiography, blood pressure, hematology (peripheral blood), and blood chemistry. At 7 days the monkeys were sacrificed and examined post-mortem for macroscopic pathology and organ weight. Fixed sections of brain (cerebellum, cerebrum, midbrain, medulla), caecum, colon, duodenum, heart (auricular and ventriclar regions), ileum, jejunum, kidneys (cortex, medulla, papilla regions), liver (two main lobes), lungs (two major lobes, including bronchi), lymph nodes (mandibular and mesenteric), esophagus, rectum, sciatic nerve, skeletal muscle (thigh), spinal cord (transverse and longitudinal sections at cervical level), spleen and stomach (body and antrum) were stained with hematoxylin/eosin to reveal necrosis or cell death.

[3] = Stability of hEN101 in human plasma and blood; format: in vitro ADME
Description: Exposure at room temperature to Li-heparin-treated blood caused a decay of hEN101 with a half-life in the order of 30 min.

[4] = test system: AChE-R mRNA; assay: In situ hybridization of AChE-R mRNA in rat spinal cord neurons; format: in vivo; details: 500 μg/kg i.v. daily, 7 days
Description: FIG. 17 Effect of rEN101 on AChE-R mRNA in rat spinal cord neurons. The presence of AChE-R mRNA-positive cells was determined in spinal cord section of rats that had been treated for 7 days with rEN101 (500 μg/kg. i.v., daily).
In situ hybridization: Tissues were fixed in 4% paraformaldehyde and cut into 7 μm paraffin embedded sections. Spinal cord sections were deparaffinized, rehydrated using serial ethanol dilutions and permeabilized with proteinase K (10 μg/ml at room temp.). Slides were exposed to 5′ biotinylated, fully 2′-oxymethylated AChE-R or AChE-S-specific 50-mer cRNA probes complementary to human ACHE pseudo-intron 4 or exon 6, respectively [Grisaru et al. (2001) id ibid.]. Hybridization was performed overnight at 52° C. in hybridization mixture containing 10 μg/ml probe, 50 μg/ml yeast tRNA, 50 μg/ml heparin and 50% formamide in 375 mM Na chloride, 37.5 mM Na citrate, pH 4.5. For monkey sections, the probe was constructed according to the human AChE-R sequence; for rat sections, according to the mouse sequence. Slides were washed to remove non-hybridized probe, blocked with 1% skim milk containing 0.01% Tween-20 and 2 mM levamisole, an alkaline phosphatase inhibitor used to suppress non-specific staining and incubate with streptavidin-alkaline phosphatase (Amersham Pharmacia). […] Microscope images were analyzed with Image Pro Plus 4.0 (Media Cybernetics) software.

[5] = test system: AChE-S mRNA; assay: In situ hybridization of AChE-S mRNA in rat muscle; format: in vivo; details: 24 h after single i.v. injection
Description: In situ hybridization: Tissues were fixed in 4% paraformaldehyde and cut into 7 μm paraffin embedded sections. Spinal cord sections were deparaffinized, rehydrated using serial ethanol dilutions and permeabilized with proteinase K (10 μg/ml at room temp.). Slides were exposed to 5′ biotinylated, fully 2′-oxymethylated AChE-R or AChE-S-specific 50-mer cRNA probes complementary to human ACHE pseudo-intron 4 or exon 6, respectively [Grisaru et al. (2001) id ibid.]. Hybridization was performed overnight at 52° C. in hybridization mixture containing 10 μg/ml probe, 50 μg/ml yeast tRNA, 50 μg/ml heparin and 50% formamide in 375 mM Na chloride, 37.5 mM Na citrate, pH 4.5. For monkey sections, the probe was constructed according to the human AChE-R sequence; for rat sections, according to the mouse sequence. Slides were washed to remove non-hybridized probe, blocked with 1% skim milk containing 0.01% Tween-20 and 2 mM levamisole, an alkaline phosphatase inhibitor used to suppress non-specific staining and incubate with streptavidin-alkaline phosphatase (Amersham Pharmacia). Fast Red™ substrate (Roche Diagnostics) was used for detection. DAPI staining (Sigma Chemical Co., St. Louis, Mo., USA) served to visualize nuclei. Microscope images were analyzed with Image Pro Plus 4.0 (Media Cybernetics) software. […]

Substance	Decrease in mean total QMG score from baseline ([1]; day 2)	Decrease in mean total QMG score from baseline ([1]; day 3)	Decrease in mean total QMG score from baseline ([1]; day 4)	Decrease in mean total QMG score from baseline ([1]; day 5)	Decrease in mean total QMG score from baseline ([1]; day 6)	Vital signs, chemical chemistry, hematology, urinalysis, ECG and physical examination ([1]; experimental period and month following discharge)	Cholinergic side effects ([1]; human, in vivo)	Duration of improved scores following the final dose ([1]; human, in vivo)	Serious adverse effects ([1]; human, in vivo)	Patients with clear symptomatic improvement ([1]; oral, 10-150 μg/kg day 1, 500 μg/kg days 2-4)	Post-mortem finding at injection site ([2]; i.v. 0.50 μg/g/day, 7 days)	Animals with slight healing erosions in the body of the stomach post-mortem ([2]; in each group, possibly associated with treatment)	Clinical investigations for toxicity ([2]; o.g. 0.15 or 0.50 μg/g/day, i.v. 0.50 μg/g/day, 7 days)	Stability, remaining concentration ([3]; 2 h in human plasma with EDTA at room temperature)	Half-life of decay ([3]; Li-heparin-treated blood at room temperature)	Stability, remaining concentration ([3]; after 1 month at −20° C.)	Stability, remaining concentration ([3]; following three freeze/thawing cycles)	AChE-R mRNA in rat spinal cord neurons [4]	AChE-S mRNA labeling in muscle [5]
5′-CTGCCACGTTCTCCTGCACC-3′ [hEN101]	3.0	4.8	5.7	5.5	6.0	remained unchanged	not reported	up to 72 hours	No serious adverse effects were observed	15 out of 16	some irritation of the perivascular tissue at the site of intravenous injection	1 of 2	no toxicological effects	> 90 % of original concentration	~30 min	> 90 % of original concentration	> 90 % of original concentration	–	–
5′-CTGCGATATTTTCTTGTACC-3′ (chemistry not given here) [rEN101]	–	–	–	–	–	–	–	–	–	–	–	–	–	–	–	–	–	does not suppress AChE-R mRNA	only nominally affected
